# Data: patent publication US20240415816A1, “ADJUNCTIVE D-CYCLOSERINE AUGMENTATION OF TRANSCRANIAL MAGNETIC STIMULATION (TMS) THERAPY FOR OBSESSIVE COMPULSIVE DISORDER” (MCGRX CORP., priority 2021, published 2024)
# “Also recorded” adds a separate entry of the source.
# Assays:
# [1] = Wisconsin Card Sorting Task in the OCD randomized double-blind trial; assay type: in vivo, human; details: iTBS+DCS (100 mg), baseline vs after 4 weeks of treatment, compared with iTBS+Placebo and Sham-iTBS
# Procedure: The efficacy of 100 mg DCS as an adjunctive strategy to iTBS to reduce OCD-related cognitive impairment and/or improve cognition in OCD was tested in a randomized double-blind 4-week study described in the Example above. Participants completed the Wisconsin Card Sorting Task at baseline and after 4 weeks of treatment. The preplanned focus was on the percent perseverative errors as an index of executive function, cognitive flexibility and cognitive control.
# [2] = Motor cortex TMS plasticity: stimulus response curve slope after single and repeated spaced iTBS, randomized double-blind placebo-controlled crossover study; assay type: in vivo, human; details: healthy participants (n=20), +30 and +60 minutes, vs placebo condition
# Procedure: Methods: A randomized double-blind placebo-controlled crossover study in healthy participants (n=20) was conducted (NCT05081986). Participants completed the study in two experimental sessions separated. In these experiments, the motor cortex was stimulated twice using TMS intermittent theta burst stimulation (iTBS) with a one-hour interval between interventions. In random order, this was done with placebo or D-cycloserine (100 mg) as adjuvant, and then the converse at least one week later. The participants' surface anatomical markers were registered to a template magnetic resonance brain image using Neuronavigation software (ANT Neuro, Germany) to permit neuronavigation and reliable targeting throughout the experiment. Transcranial magnetic stimulation involved a MagPro X100 system with Cool-B70 figure-eight coil (MagVenture, Denmark). The iTBS protocol consisted of 20 trains of bursts of 3-pulses at 50 Hz, repeated at 5 Hz with an 8 second inter-train interval at 80% RMT. Motor evoked potentials (MEPs) from the first-dorsal interosseous muscle were sampled to describe stimulus response curves using CED Signal (Cambridge, England) before and after iTBS. […] EMG data were analyzed offline using MATLAB via custom written scripts as previously described^123. […]
structure (smiles),measurement,setting,value
"N[C@@H]1CON=C1O [DCS, D-cycloserine]",percentage of perseverative errors (Wisconsin Card Sorting Task),[1],significant reductions in the percentage of perseverative errors; also recorded: decrease in the percent perseverative errors
same,change in stimulus response curve (SRC) slope after first (single) iTBS,[2]; DCS 100 mg as adjuvant to iTBS of motor cortex,stable after a single iTBS; also recorded: the initial SRC shift at +30 minutes remains stable at +60 minutes
same,change in stimulus response curve (SRC) slope after second (repeated spaced) iTBS,"[2]; DCS 100 mg, second iTBS 60 minutes after the first",compound with spaced repeated iTBS; also recorded: a further shift in SRC slope in the DCS condition at +30 minutes that was sustained at +60 minutes
